# From patent publication US11492335B2, “Aryl or heteroaryl triazolone derivatives or salts thereof, or pharmaceutical compositions comprising the same” (YUHAN CORPORATION, priority 2018, dated 2022)
# Structures can show the parent of a compound that is named as a salt. Where two headings read alike, the source gives them in different places.
# Tests used:
# Type in all cases: biochemical
# recombinant human VAP-1 = target: T1, recombinant human VAP-1 (Homo sapiens, UniProt Q16853); test: Activity on recombinant human VAP-1, Amplex Red HRP-coupled hydrogen peroxide assay, benzylamine substrate; conditions: recombinant human VAP-1, benzylamine substrate, read-out: Inhibitory Activity (IC50, nM) human VAP-1
# T1 construct: purchased R&D systems
# T1 sequence (Q16853 1-763): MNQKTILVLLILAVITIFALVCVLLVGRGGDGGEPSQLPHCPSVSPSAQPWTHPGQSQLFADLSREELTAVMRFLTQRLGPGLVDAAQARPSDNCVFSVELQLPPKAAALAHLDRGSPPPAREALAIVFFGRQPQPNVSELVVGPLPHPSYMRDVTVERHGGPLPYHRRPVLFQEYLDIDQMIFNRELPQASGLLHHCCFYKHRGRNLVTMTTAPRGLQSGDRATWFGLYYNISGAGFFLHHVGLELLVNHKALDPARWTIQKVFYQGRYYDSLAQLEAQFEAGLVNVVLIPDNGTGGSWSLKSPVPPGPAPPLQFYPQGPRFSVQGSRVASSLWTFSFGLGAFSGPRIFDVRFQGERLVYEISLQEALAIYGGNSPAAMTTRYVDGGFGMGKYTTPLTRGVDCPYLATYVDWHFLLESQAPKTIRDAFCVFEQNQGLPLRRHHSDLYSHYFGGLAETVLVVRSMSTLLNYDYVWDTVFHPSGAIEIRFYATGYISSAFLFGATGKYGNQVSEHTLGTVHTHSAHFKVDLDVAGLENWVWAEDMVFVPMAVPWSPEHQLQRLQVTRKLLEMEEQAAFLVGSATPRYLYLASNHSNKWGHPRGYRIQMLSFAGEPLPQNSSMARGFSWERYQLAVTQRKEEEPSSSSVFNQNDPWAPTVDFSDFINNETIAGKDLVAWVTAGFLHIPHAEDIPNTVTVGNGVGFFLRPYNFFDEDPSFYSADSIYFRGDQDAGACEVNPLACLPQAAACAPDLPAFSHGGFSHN
# In short: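 Dose-response IC50 determined from reduction in resorufin signal rate (544/590 nm, 1-2 h), with 30 min compound preincubation at 37 °C and 1 mM benzylamine as substrate.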
# [1] = target: T2, recombinant human MAO-A (monoamine oxidase-A) (Homo sapiens, UniProt P21397); test: Activity on recombinant human MAO-A, Amplex Red method, 0.5 mM tyramine substrate; conditions: read-out: Inhibitory Activity (IC50, nM) MAO-A
# T2 construct: purchased Sigma-Aldrich
# T2 sequence (P21397 1-527): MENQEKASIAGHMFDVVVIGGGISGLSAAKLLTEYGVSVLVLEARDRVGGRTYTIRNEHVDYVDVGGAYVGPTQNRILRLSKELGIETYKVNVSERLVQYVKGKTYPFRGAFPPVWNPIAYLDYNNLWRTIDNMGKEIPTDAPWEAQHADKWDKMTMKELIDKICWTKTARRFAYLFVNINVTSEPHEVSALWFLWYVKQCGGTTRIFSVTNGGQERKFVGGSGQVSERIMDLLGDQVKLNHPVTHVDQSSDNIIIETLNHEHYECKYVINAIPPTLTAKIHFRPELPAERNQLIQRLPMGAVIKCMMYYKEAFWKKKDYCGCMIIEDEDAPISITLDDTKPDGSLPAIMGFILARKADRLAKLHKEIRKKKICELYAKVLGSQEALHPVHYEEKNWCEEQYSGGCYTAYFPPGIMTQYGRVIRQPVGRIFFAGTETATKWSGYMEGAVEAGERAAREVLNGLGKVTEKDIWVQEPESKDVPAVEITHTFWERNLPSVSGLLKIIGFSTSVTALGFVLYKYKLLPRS
# In short: (§1)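 Amplex Red/HRP coupled read-out of H2O2 with 0.5 mM tyramine for MAO-A or 1 mM benzylamine for MAO-B, following a 30-min compound–enzyme preincubation at 37° C. IC50 from percent inhibition of signal rate relative to uninhibited control.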
# [2] = target: T3, recombinant human MAO-B (monoamine oxidase-B) (Homo sapiens, UniProt P27338); test: Activity on recombinant human MAO-B, Amplex Red method, 1 mM benzylamine substrate; conditions: read-out: Inhibitory Activity (IC50, nM) MAO-B
# T3 construct: purchased Sigma-Aldrich
# T3 sequence (P27338 1-520): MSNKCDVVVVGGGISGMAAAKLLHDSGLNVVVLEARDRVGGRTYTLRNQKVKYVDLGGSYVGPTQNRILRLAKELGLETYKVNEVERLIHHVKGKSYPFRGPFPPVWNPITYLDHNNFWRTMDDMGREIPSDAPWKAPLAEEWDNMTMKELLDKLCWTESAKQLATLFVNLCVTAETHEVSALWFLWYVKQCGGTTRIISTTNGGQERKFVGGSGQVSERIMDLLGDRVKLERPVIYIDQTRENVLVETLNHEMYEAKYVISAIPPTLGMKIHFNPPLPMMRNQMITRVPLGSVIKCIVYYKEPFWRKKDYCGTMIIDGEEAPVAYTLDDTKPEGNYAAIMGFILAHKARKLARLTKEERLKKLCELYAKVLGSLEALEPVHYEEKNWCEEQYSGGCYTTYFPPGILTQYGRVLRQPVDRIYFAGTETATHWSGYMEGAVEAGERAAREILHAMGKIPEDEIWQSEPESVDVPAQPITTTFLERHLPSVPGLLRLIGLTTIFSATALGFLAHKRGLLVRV
# In short: as §1
# [3] = target: T4, recombinant human DAO (diamine oxidase) (Homo sapiens, UniProt P19801); test: Activity on recombinant human DAO, Amplex Red method, 1 mM putrescine substrate; conditions: recombinant human DAO, read-out: Inhibitory Activity (IC50, nM) DAO
# T4 construct: purchased R&D systems
# T4 sequence (P19801 20-751): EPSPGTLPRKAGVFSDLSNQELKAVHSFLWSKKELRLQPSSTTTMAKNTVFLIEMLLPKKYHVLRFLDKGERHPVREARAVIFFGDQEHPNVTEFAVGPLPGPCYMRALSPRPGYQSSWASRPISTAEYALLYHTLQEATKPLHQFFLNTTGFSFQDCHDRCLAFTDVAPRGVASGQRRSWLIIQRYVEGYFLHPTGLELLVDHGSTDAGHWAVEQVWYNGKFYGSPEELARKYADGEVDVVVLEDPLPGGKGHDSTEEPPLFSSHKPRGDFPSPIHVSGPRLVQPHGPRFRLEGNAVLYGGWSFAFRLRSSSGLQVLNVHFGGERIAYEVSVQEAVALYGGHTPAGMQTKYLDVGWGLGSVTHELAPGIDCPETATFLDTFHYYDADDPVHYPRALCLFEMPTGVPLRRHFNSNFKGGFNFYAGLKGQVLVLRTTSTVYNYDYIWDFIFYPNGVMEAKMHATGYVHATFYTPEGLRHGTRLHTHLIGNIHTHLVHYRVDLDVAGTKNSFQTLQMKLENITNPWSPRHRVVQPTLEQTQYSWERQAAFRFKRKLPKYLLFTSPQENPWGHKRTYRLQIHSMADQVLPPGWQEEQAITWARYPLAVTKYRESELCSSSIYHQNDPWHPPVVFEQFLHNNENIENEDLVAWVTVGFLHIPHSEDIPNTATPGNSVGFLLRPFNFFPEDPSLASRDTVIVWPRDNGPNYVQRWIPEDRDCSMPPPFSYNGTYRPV
# In short: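 Inhibition of recombinant human DAO (diamine oxidase, R&D systems) was assessed with the Amplex Red Hydrogen Peroxide Assay Kit. Hydrogen peroxide produced from 1 mM putrescine was detected through an HRP-coupled reaction that converts Amplex Red into fluorescent resorufin, read at 544 nm excitation and 590 nm emission. IC50 values came from four-parameter logistic fits in GraphPad Prism.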
# [4] = 1 mM putrescine, * = between 10 and 100 nM, ** = between 300 and 1000 nM
IC50 (recombinant human VAP-1; 30 min preincubation at 37° C.) [nM],IC50 ([1]; 0.5 mM tyramine) [nM],IC50 ([2]; 1 mM benzylamine) [nM],"IC50 [3, 4] [nM]",IC50 (recombinant human VAP-1) [nM],IC50 ([1]; 0.5 mM tyramine substrate) [nM],IC50 ([2]; 1 mM benzylamine substrate) [nM],IC50 ([3]; 1 mM putrescine substrate) [nM],Structure (SMILES)
0.4,160000,> 10000,35,–,–,–,–,"Cc1cc(-c2ccc(C(F)(F)F)nc2)cnc1-n1cnn(C/C(=C/F)CN)c1=O [Example 148, 2-[(2E)-2-(aminomethyl)-3-fluoroprop-2-en-1-yl]-4-[5-methyl-6′-(trifluoromethyl)-3,3′-bipyridin-6-yl]-2,4-dihydro-3H-1,2,4-triazol-3-one hydrochloride]"
0.7,84000,1100,240,–,–,–,–,"Cc1cc(-c2ccc(-c3cnon3)cc2)cnc1-n1cnn(C/C(=C/F)CN)c1=O [Example 138, 2-[(2E)-2-(aminomethyl)-3-fluoroprop-2-en-1-yl]-4-{3-methyl-5-[4-(1,2,5-oxadiazol-3-yl)phenyl]pyridin-2-yl}-2,4-dihydro-3H-1,2,4-triazol-3-one hydrochloride]"
0.5,34000,3790,120,–,–,–,–,"Cc1cc(-c2cccc(-c3nnc[nH]3)c2)cnc1-n1cnn(C/C(=C/F)CN)c1=O [Example 137, 2-[(2E)-2-(aminomethyl)-3-fluoroprop-2-en-1-yl]-4-{3-methyl-5-[3-(4H-1,2,4-triazol-3-yl)phenyl]pyridin-2-yl}-2,4-dihydro-3H-1,2,4-triazol-3-one]"

# Second part, the compound before the results:
Structure (SMILES),IC50 (recombinant human VAP-1; 30 min preincubation at 37° C.) [nM],IC50 ([1]; 0.5 mM tyramine) [nM],IC50 ([2]; 1 mM benzylamine) [nM],"IC50 [3, 4] [nM]",IC50 (recombinant human VAP-1) [nM],IC50 ([1]; 0.5 mM tyramine substrate) [nM],IC50 ([2]; 1 mM benzylamine substrate) [nM],IC50 ([3]; 1 mM putrescine substrate) [nM]
"Cc1cc(-c2ccc(N3CCOCC3)nc2)cnc1-n1cnn(C/C(=C/F)CN)c1=O [Example 149, 2-[(2E)-2-(aminomethyl)-3-fluoroprop-2-en-1-yl]-4-[5-methyl-6′-(morpholin-4-yl)-3,3′-bipyridin-6-yl]-2,4-dihydro-3H-1,2,4-triazol-3-one hydrochloride]",0.5,> 100000,> 10000,490,–,–,–,–
"NC/C(=C\F)Cn1ncn(-c2cccc(-c3cccc(-c4noc(C5CC5)n4)c3)n2)c1=O [Example 179, 2-[(2E)-2-(aminomethyl)-3-fluoroprop-2-en-1-yl]-4-{6-[3-(5-cyclopropyl-1,2,4-oxadiazol-3-yl)phenyl]pyridin-2-yl}-2,4-dihydro-3H-1,2,4-triazol-3-one hydrochloride]",–,–,–,–,1.1,270000,390,3.1
"Cc1c(-c2ccc(S(C)(=O)=O)cc2)cccc1-n1cnn(C/C(=C/F)CN)c1=O [Example 106, 2-[(2E)-2-(aminomethyl)-3-fluoroprop-2-en-1-yl]-4-[2-methyl-4′-(methylsulfonyl)biphenyl-3-yl]-2,4-dihydro-3H-1,2,4-triazol-3-one]",4.7,> 100000,> 10000,310,–,–,–,–
"NC/C(=C\F)Cn1ncn(-c2cc(-c3ccc(N4CCOCC4)nc3)ccn2)c1=O [Example 169, 2-[(2E)-2-(aminomethyl)-3-fluoroprop-2-en-1-yl]-4-[6-(morpholin-4-yl)-3,4′-bipyridin-2′-yl]-2,4-dihydro-3H-1,2,4-triazol-3-one]",–,–,–,–,0.28,> 100000,> 10000,< 30
"NC/C(=C\F)Cn1ncn(-c2cccc(-c3ccc4c(c3)NC(=O)CO4)c2)c1=O [Example 103, 6-(3-{1-[(2E)-2-(aminomethyl)-3-fluoroprop-2-en-1-yl]-5-oxo-1,5-dihydro-4H-1,2,4-triazol-4-yl}phenyl)-2H-1,4-benzoxazin-3(4H)-one hydrochloride]",0.6,26500,1200,2.5,–,–,–,–
"NC/C(=C/F)Cn1ncn(-c2ccc(F)cc2)c1=O [Example 5, 2-[(2Z)-2-(aminomethyl)-3-fluoroprop-2-en-1-yl]-4-(4-fluorophenyl)-2,4-dihydro-3H-1,2,4-triazol-3-one]",3.8,1600,260,1100,–,–,–,–
"CC(=O)Nc1cc(-c2cccc(-n3cnn(C/C(=C\F)CN)c3=O)c2)ccn1 [Example 80, N-[4-(3-{1-[(2Z)-2-(aminomethyl)-3-fluoroprop-2-en-1-yl]-5-oxo-1,5-dihydro-4H-1,2,4-triazol-4-yl}phenyl)pyridin-2-yl]acetamide hydrochloride]",1.1,> 100000,> 10000,12,–,–,–,–
"NC/C(=C/F)Cn1ncn(-c2ncc(Br)s2)c1=O [Example 40, 2-[(2Z)-2-(aminomethyl)-3-fluoroprop-2-en-1-yl]-4-(5-bromo-1,3-thiazol-2-yl)-2,4-dihydro-3H-1,2,4-triazol-3-one hydrochloride]",1.1,80,619,25,–,–,–,–
